In article PMC6017171, “Comparative Evaluation of the Antioxidant and Anti-Alzheimer’s Disease Potential of Coumestrol and Puerarol Isolated from Pueraria lobata Using Molecular Modeling Studies” (Molecules : A Journal of Synthetic Chemistry and Natural …, 2018):
Entries after “also recorded” stand apart in the source; their conditions may differ. Where two headings read alike, the source gives them in different places.

Assays:
BACE1 [1] = target: T1, BACE1 (Homo sapiens, UniProt P56817); test: Enzyme kinetic analysis for BACE1 inhibition (Lineweaver-Burk and secondary plots); assay type: biochemical; settings: for Inhibition mode, BACE1: Lineweaver-Burk plots; for Ki: secondary plot
T1 construct: purchased
T1 sequence (P56817 46-501): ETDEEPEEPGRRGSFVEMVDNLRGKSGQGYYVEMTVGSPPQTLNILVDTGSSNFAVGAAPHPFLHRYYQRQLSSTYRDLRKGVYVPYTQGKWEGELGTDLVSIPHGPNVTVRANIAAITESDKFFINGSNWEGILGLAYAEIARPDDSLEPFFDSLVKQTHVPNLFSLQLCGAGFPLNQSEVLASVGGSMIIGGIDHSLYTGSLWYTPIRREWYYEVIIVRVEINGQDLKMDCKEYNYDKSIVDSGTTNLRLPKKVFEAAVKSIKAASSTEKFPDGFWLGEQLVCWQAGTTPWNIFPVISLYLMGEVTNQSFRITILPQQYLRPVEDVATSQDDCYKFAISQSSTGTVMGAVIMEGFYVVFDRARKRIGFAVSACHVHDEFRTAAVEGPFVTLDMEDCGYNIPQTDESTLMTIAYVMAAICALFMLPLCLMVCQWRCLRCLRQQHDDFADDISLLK
Experimental: (§1) To elucidate the mechanisms of ChE inhibition, kinetic studies of enzyme activity were performed. The slope or intercept in Lineweaver-Burk plots were drawn in SigmaPlot 12.0 as a function of inhibitor concentration, and the kinetic parameters were determined.
(§2) To determine the mechanism of inhibition, AChE, BChE, and BACE1 inhibition was evaluated by monitoring the effects of different concentrations of substrate (0.4 to 0.8 mM for AChE and BChE; 250 to 750 nM for BACE1). Specifically, AChE, BChE, and BACE1 inhibition assays were performed as described above, but the substrate concentration was varied. Inhibition modes of coumestrol and puerarol against ChEs and BACE1 were determined by Lineweaver–Burk plots. Inhibition constants (Ki) were determined by secondary plots.

horse serum BChE [2] = target: T2, horse serum BChE (Equus caballus, UniProt P81908); test: In vitro ChE enzyme assay (Ellman), BChE; assay type: biochemical; settings: substrate BTCh; mean ± S.E.M of triplicate experiments
T2 construct: horse serum BChE (EC 3.1.1.8); purchased Sigma-Aldrich Co. (St. Louis, MO, USA); host or cells: horse serum
T2 sequence (P81908 whole entry): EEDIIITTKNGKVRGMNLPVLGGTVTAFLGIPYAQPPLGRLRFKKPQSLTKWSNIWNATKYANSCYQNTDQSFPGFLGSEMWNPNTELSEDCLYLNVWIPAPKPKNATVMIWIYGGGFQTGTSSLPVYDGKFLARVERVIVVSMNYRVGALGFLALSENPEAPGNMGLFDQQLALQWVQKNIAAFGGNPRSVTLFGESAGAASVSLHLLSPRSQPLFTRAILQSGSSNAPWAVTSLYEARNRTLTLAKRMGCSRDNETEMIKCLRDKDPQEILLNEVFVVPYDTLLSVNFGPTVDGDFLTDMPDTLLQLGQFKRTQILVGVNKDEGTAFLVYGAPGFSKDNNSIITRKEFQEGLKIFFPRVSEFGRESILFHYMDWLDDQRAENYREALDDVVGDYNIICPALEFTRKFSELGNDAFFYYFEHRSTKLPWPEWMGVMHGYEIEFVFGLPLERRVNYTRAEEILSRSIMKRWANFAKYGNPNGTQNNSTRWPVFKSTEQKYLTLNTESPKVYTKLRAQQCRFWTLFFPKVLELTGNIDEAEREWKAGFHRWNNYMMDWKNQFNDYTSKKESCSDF
Experimental: (§3) Electric eel AChE (EC 3.1.1.7), horse serum BChE (EC 3.1.1.8), acetylthiocholine iodide (ATCh), butyrylthiocholine chloride (BTCh), 5,5-dithiobis[2-nitrobenzoic acid] […] All required reagent-grade chemicals used in this study were purchased from commercial sources. Coumestrol and puerarol were isolated from P. lobata as described by Seong et al..
(§4) The inhibitory activity of coumestrol and puerarol against ChEs was measured using the spectrophotometric methods reported by Ellman et al. and Jung et al.. ATCh and BTCh were used as substrates to assay the inhibition of AChE and BChE, respectively. All reactions were performed in triplicate and were recorded in a 96-well microplate format using a microplate spectrophotometer (Molecular Devices, Sunnyvale, CA, USA). Percent inhibition was calculated as (1 − S/E) × 100, where E and S were the enzyme activities without and with the test sample, respectively.

[3] = Western blot analysis for inhibition of ONOO−-mediated nitrotyrosine formation (BSA nitration)
Experimental: Figure 2 Dose-depended inhibition of ONOO^−-mediated albumin nitration by coumestrol and puerarol. Mixtures of test samples, bovine serum albumin (BSA), and ONOO^− were incubated with shaking at 37 °C for 30 min. The reactant was resolved in 10% polyacrylamide gel via electrophoresis. (a) Coumestrol; and (b) puerarol, were used at the indicated concentrations; (c) Quantification of band intensity was calculated using CS Analyzer 3.00 (ATTO Corp., Tokyo, Japan). ^# p < 0.05 indicates a significant difference from the untreated normal group, * p < 0.05 indicate significant differences from the ONOO^− treated control.
The inhibition of ONOO^−-nitrotyrosine formation was evaluated using the method of Aulak et al.. Samples were added to BSA and mixed with ONOO^− (200 µM). After a 10 min incubation period (room temperature), the sample solution was added to Bio-Rad 2X Laemmli Sample buffer with mercaptoethanol and then boiled for 7 min. The reactant was resolved in 10% polyacrylamide gel via electrophoresis and transferred to PVDF membranes. Pre-stained blue protein markers were used for molecular weight determination. […] Densitometric analysis of the western blot results was determined using a CS analyzer v3.00 (ATTO Corp.).

[4] = DPPH radical scavenging activity; settings: mean ± S.E.M of triplicate experiments
Experimental: DPPH radical scavenging activity was evaluated using the method of Blois, with slight modification. Test samples and DPPH were dissolved in methanol. Each test sample (160 µL) at various concentrations was added to 40 µL of DPPH solution (1.5 × 10^−4 M). After gently mixing and standing at room temperature for 30 min, the optical density of the reactant was measured at 520 nm using a VERSAmax microplate spectrophotometer (Molecular Devices, Sunnyvale, CA, USA). […] L-Ascorbic acid was used as a positive control.

[5] = ONOO− scavenging activity (DHR 123 oxidation); settings: mean ± S.E.M of triplicate experiments; read-out: EC50 Peroxynitrite scavenging
Experimental: In brief, the rhodamine buffer (pH 7.4) consisted of 50 mM sodium phosphate dibasic, 50 mM sodium phosphate monobasic, 90 mM sodium chloride, 5.0 mM potassium chloride, and 100 μM diethylenetriamine pentaacetate. […] The assay buffer was prepared prior to use and placed on ice. Test samples were dissolved in 10% DMSO (100 μM final concentration). The background and final fluorescent intensities were measured 5 min after treatment with and without the addition of authentic ONOO^− (10 μM), dissolved in 0.3 N sodium hydroxide. […] L-penicillamine was used as a positive control.

BACE1 [6] = target: T1, BACE1; test: In vitro BACE1 enzyme assay; assay type: biochemical; settings: mean ± S.E.M of triplicate experiments
Experimental: The in vitro BACE1 enzyme assay was carried out according to the manufacturer’s recommended protocol with minor modifications. Briefly, a mixture of […] of assay buffer (50 mM sodium acetate, pH 4.5), […] of BACE1 (1.0 U/mL), […] of substrate (750 nM Rh-[…]-Quencher in 50 mM, ammonium bicarbonate) and […] of the test sample was dissolved in 10% DMSO and incubated for 60 min at 25 °C in the dark. Proteolysis of the two fluorophores (Rh-[…]-Quencher) by BACE1 was determined by monitoring formation of the fluorescent donor (Rh-EVNL) at wavelengths of 545 nm for excitation and 585 nm for emission. Fluorescence was measured with a microplate spectrofluorometer (Gemini EM, Sunnyvale, CA, USA).

Electric eel AChE [7] = target: T3, Electric eel AChE (Electrophorus electricus, UniProt O42275); test: In vitro ChE enzyme assay (Ellman), AChE; assay type: biochemical
T3 construct: purchased Sigma-Aldrich Co. (St. Louis, MO, USA)
T3 sequence (O42275 24-633): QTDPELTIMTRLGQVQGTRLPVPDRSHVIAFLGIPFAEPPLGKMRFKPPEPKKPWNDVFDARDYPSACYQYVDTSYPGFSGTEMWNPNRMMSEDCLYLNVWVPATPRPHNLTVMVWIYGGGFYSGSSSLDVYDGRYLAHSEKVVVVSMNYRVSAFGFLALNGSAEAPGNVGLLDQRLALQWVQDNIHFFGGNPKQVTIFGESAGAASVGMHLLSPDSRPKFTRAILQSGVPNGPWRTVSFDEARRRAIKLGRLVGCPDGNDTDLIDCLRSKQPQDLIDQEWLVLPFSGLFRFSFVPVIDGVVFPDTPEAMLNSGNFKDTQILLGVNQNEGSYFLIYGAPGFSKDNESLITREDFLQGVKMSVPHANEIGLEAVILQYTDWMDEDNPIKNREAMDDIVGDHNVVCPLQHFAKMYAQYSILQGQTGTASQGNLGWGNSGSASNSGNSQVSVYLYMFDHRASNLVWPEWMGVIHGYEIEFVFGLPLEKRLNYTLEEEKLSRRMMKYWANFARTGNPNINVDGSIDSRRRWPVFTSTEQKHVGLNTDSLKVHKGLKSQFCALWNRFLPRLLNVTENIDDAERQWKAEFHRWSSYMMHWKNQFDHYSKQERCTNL
Experimental: as §3, §4

[8] = cited from earlier work
Electric eel AChE [9] = target: T3, Electric eel AChE; test: Enzyme kinetic analysis for AChE inhibition (Lineweaver-Burk and secondary plots); assay type: biochemical; settings: for Inhibition mode, AChE: Lineweaver-Burk plots
Experimental: as §1, §2

horse serum BChE [10] = target: T2, horse serum BChE; test: Enzyme kinetic analysis for BChE inhibition (Lineweaver-Burk and secondary plots); assay type: biochemical; settings: for Inhibition mode, BChE: Lineweaver-Burk plots; for Ki: secondary plot
Experimental: as §1, §2

[11] = substrate ATCh, mean ± S.E.M of triplicate experiments, read-out: IC50 AChE

CC(C)=CCCC(C)=CCc1cc2c(cc1O)oc(=O)c1c3ccc(O)cc3oc21 [Puerarol]
Inhibition mode, BACE1 (BACE1 [1]): Mixed-type ^e | Inhibition mode, BACE1 (BACE1 [1]; listed as puerarol): mixed inhibition; also recorded: mixed type | Ki (BACE1 [1]; binding constant of inhibitor with enzyme-substrate complex, read-out: Ki value Kiu, BACE1): 73.2 µM | Ki (BACE1 [1]; binding constant of inhibitor with free enzyme, read-out: Ki value Kic, BACE1): 33.8 µM | IC50 (horse serum BChE [2]): > 200 µM | Blot intensity of ONOO−-mediated nitrated BSA ([3]; 50–200 µM): dose dependent decrease | EC50 [4]: 82.5 ± 1.33 µM | EC50 [5]: 6.99 ± 0.3 µM | IC50 (BACE1 [6]): 28.2 ± 2.48 µM | IC50 (Electric eel AChE [7]; [11]): 145 ± 2.46 µM

O=C1O[C@H]([C@@H](O)CO)C(O)=C1O [L-Ascorbic acid, reference compound]
EC50 [4]: 17.4 ± 0.32 µM

COc1cc(O)c2c(c1)oc(=O)c1c3cc(O)c(O)cc3oc21 [wedelolactone, reference compound]
IC50 ([8]; read-out: DPPH scavenging activity IC50): 7 µM

O=c1oc2cc(O)ccc2c2oc3cc(O)ccc3c12 [Coumestrol]
Inhibition mode, AChE (Electric eel AChE [9]): Competitive | Inhibition mode, AChE (Electric eel AChE [9]; listed as coumestrol): competitive | Ki (Electric eel AChE [9]; secondary plot, binding constant of inhibitor with free enzyme, read-out: Ki value Kic, AChE): 48.9 µM | IC50 (horse serum BChE [2]): 24.6 ± 2.28 µM | Blot intensity of ONOO−-mediated nitrated BSA ([3]; 10 µM to 100 µM): dose dependent decrease | EC50 [4]: 54 ± 1 µM | DPPH scavenging ([8]; ref 29 (Booth et al.)): inactivity | Inhibition mode, BChE (horse serum BChE [10]): Mixed-type | Inhibition mode, BChE (horse serum BChE [10]; listed as coumestrol): mixed type | Ki (horse serum BChE [10]; binding constant of inhibitor with enzyme-substrate complex, read-out: Ki value Kiu, BChE): 41.9 µM | Ki (horse serum BChE [10]; binding constant of inhibitor with free enzyme, read-out: Ki value Kic, BChE): 12.1 µM | EC50 [5]: 1.17 ± 0.11 µM | IC50 (BACE1 [6]): 51 ± 1.86 µM | IC50 (Electric eel AChE [7]; [11]): 42.3 ± 1.29 µM

COc1ccc2cc3[n+](cc2c1OC)CCc1cc2c(cc1-3)OCO2 [Berberine, berberine chloride, reference compound]
IC50 (Electric eel AChE [7]): 2.22 ± 0.02 µM
